{"source": "paper PMC8980233", "about": "“Differentiating the Neuropharmacological Properties of Nicotinic Acetylcholine Receptor-Activating Alkaloids” (Frontiers in Pharmacology, 2022)", "key": {"[1]": {"tested_on": "C57Bl/6 mice", "assay": "Tolerability test (body weight, body temperature, passive signs, manipulation responses)", "conditions": "for BT (°C) naïve / Manipulations naïve / Passive naïve: baseline; for BW Day 1 / BW Day 2: mean ± SD", "method": "In brief, mice were single-housed prior to the test and evaluated for baseline body weight, body temperature, and other parameters. […] On day 1, the mice were i. p. injected with saline (vehicle) or a test compound at 10 ml/kg body weight. Then, body temperature was measured at 15 min, 4 h, and 24 h and body weight on days 1 and 2. Neurological and motor parameters were evaluated at 15 min, 2 h, and 4 h after administration. The list of parameters is provided in Supplementary Figure S1 in Supplementary Material S1.\nIn addition, within 5 min after the 15-min observation period, mice were placed in open-field chambers for 30 min to determine their general motor activity (distance traveled), ambulatory time, and number of rears. The open-field chambers were made of Plexiglas (27.3 × 27.3 × 20.3 cm; Med Associates Inc, St Albans, VT, United States) surrounded by infrared photobeam sources (16 × 16 × 16 beams). Horizontal activity (distance and time traveled) and vertical activity (number and frequency of rears) were measured by consecutive beam breaks. At the end of each open-field test session, the chambers were thoroughly cleaned with NOLVASAN® solution (Zoetis Services LLC, Parsippany, NJ, United States). Four mice were used per treatment condition. Mice were terminated after completion of the last tolerability observation.\nAll compounds were diluted in saline, and the pH was adjusted to approximately 7.0 with HCl or NaOH on the day of the experiment. […] The doses were calculated based on the free base molecular weight of the compounds.\nFor the tolerability tests, passive signs and manipulation responses were analyzed for effects of the treatment by the Kruskal–Wallis test. Body temperature and body weight data were analyzed by two-way repeated measures analysis of variance (ANOVA). The total distance and time traveled and number and frequency of rears in the open-field activity test were analyzed by one-way ANOVA, followed by the Tukey post-hoc test. For the analyses of the zebrafish NTT data, one-way ANOVA was used, followed by Dunnett’s multiple comparison test, if it passed the Shapiro-Wilk normality test. […] An effect was considered significant if p < 0.05. The half maximal effective concentration (EC50) and half-maximal inhibitory concentration (IC50) for the receptor pharmacology and neurotransmitter release assay were determined by using nonlinear regression analysis. Statistical analyses were conducted using GraphPad Prism."}, "[2]": {"target": "α4β2 nAChR (Homo sapiens, UniProt P17787+P43681)", "sequence (P43681 29-627 limits assumed)": "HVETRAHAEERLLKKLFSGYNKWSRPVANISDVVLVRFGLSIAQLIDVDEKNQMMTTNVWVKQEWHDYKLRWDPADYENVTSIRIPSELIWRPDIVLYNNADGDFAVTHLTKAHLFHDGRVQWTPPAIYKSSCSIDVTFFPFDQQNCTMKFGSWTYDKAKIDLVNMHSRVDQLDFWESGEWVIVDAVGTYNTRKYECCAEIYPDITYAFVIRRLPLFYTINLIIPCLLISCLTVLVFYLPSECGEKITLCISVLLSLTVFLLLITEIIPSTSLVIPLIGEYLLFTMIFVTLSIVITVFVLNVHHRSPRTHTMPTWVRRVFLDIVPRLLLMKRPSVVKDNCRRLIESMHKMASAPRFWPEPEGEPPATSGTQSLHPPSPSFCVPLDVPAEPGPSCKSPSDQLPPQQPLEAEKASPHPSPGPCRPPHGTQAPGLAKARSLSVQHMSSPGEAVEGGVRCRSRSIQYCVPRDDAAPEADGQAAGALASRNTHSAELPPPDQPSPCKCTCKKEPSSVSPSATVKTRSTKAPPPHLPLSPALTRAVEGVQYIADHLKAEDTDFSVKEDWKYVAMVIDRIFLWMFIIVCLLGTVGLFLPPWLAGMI", "sequence (P17787 26-502)": "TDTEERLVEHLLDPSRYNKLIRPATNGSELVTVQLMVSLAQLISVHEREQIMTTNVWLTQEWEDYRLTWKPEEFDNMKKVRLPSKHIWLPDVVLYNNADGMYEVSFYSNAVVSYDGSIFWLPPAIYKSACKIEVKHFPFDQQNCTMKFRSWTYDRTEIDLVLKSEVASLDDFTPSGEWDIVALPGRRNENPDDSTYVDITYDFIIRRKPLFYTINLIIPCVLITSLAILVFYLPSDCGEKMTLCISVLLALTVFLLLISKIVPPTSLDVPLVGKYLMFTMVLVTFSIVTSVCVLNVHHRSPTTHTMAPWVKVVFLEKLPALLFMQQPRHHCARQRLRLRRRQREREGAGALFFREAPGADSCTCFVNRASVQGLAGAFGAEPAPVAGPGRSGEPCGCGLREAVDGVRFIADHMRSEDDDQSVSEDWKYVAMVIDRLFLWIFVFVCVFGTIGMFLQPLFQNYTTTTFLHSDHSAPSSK", "assay": "nAChR functional assay, automated patch-clamp", "format": "cell-based", "conditions": "preliminary, data not shown", "method": "(§1) Electrophysiological responses were recorded using an automated patch-clamp Patchliner Octo® system (Nanion Technologies, Munich, Germany) equipped with two EPC-10 Quadro patch-clamp amplifiers (HEKA Elektronik, Lambrecht, Germany) as described by ([Alijevic et al., 2020]). In brief, Chinese hamster ovary (CHO) or human embryonic kidney-293 (HEK-293) cells stably expressing human nAChRs (Charles River Laboratories, Wilmington, MA, United States) were maintained in DMEM/F12 medium (Gibco, Thermo Fisher Scientific, Waltham, MA, United States) supplemented with 10% heat-inactivated fetal bovine serum (FBS; Gibco) and penicillin–streptomycin (100 U/mL and 0.1 mg/ml, respectively; Sigma-Aldrich, St. Louis, MO, United States) at 37°C in 5% CO2 and 70% humidity. The following selection antibiotics were used for the cell lines: G418 (0.25 mg/ml; Sigma-Aldrich) and Zeocin^TM (0.4 mg/ml; InvivoGen, San Diego, CA, United States) for α7/Ric3 nAChR and α3β4 nAChR cells; puromycin (8 μg/ml; InvivoGen) and hygromycin B (0.4 mg/ml; Gibco) for α4β2 nAChR cells; and G418 (0.5 mg/ml), puromycin (0.25 μg/ml), and hygromycin B (0.02 mg/ml) for α6/3β2/β3 nAChR cells. The cells were used for characterizing nAChR pharmacology, because no endogenous ionotropic nicotinic receptors are found ([Roncarati et al., 2008]; [Papke and Smith-Maxwell, 2009]; [Kirsch et al., 2016]; [Scheffel et al., 2018]). The subunit distributions in the cells have been previously described ([Alijevic et al., 2020]). The human nAChRs were selected due to the lack of commercially available nAChR expression systems for mouse or zebrafish. The translatability of findings between zebrafish and human nAChR activities have been previously reported ([Papke and Smith-Maxwell, 2009]; [Papke et al., 2012]; [Alijevic et al., 2020]).\n(§2) On the day of the experiment, nAChR-expressing cells were suspended in extracellular solution (in mM: 140 NaCl, 4KCl, one MgCl2, two CaCl2, five glucose, and 10 HEPES, adjusted to pH 7.4 with NaOH (298 mOsmol)), then placed in the Patchliner Octo® system. The internal solution contained in mM: 50 KCl, 60 kF, 10 NaCl, 20 EGTA, and 10 HEPES, adjusted to pH 7.2 with KOH (285 mOsmol). […] Data were analyzed using the Patchmaster software and corrected for leak current. The data acceptance criteria were as follows: seal resistance >100 MΩ; seal resistance loss variation <50%; access resistance <20 MΩ; and minimum current amplitude elicited by maximal effect concentration acetylcholine >50 pA. Offline data analysis was performed in OpenOffice™ (v4.1.2; The Apache Software Foundation, Wakefield, MA, United States). Data are presented as mean ± S.D. All experiments were performed at room temperature (24°C) and repeated at least three times. Igor Pro (v6.2.2.2; WaveMetrics, Lake Oswego, OR, United States) or Prism (v8.2.1) were used for assessing the concentration–response curves."}, "[3]": {"target": "α6/3β2β3 nAChR (Homo sapiens, UniProt P17787+P32297+Q15825)", "sequence (Q15825+P32297 fused with the stated changes)": "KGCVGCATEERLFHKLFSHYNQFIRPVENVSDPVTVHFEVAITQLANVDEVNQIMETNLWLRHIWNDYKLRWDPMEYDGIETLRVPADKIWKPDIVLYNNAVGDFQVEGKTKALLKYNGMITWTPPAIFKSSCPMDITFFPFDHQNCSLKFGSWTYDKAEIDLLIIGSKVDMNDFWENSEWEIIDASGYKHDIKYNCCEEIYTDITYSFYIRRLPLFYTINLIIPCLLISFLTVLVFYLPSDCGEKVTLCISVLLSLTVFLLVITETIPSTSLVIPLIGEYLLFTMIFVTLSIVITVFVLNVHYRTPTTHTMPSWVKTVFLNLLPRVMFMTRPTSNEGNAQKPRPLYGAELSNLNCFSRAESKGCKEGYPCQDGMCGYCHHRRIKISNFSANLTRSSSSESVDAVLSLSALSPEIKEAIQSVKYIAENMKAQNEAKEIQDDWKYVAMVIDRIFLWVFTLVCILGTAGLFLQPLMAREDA", "sequence (P17787 26-502)": "as the sequence (P17787 26-502) above", "sequence (Q05901 25-458 partner limits assumed)": "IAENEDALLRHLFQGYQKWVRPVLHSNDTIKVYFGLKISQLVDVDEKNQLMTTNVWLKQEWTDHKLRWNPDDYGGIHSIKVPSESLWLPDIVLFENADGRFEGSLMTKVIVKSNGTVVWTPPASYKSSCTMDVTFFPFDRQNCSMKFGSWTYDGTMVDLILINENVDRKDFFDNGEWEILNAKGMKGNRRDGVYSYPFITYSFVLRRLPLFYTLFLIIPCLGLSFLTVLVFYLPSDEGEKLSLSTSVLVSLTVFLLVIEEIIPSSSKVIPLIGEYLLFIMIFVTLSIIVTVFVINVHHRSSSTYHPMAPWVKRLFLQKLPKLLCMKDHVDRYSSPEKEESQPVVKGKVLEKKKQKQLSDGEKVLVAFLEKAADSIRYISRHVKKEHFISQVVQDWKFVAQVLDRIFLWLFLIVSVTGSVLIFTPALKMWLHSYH", "assay": "nAChR functional assay, automated patch-clamp", "format": "cell-based", "method": "as §1, §2"}}, "data": [{"compound": "C1=CCC(c2cccnc2)NC1", "note": "(racemic) [Anatabine, (±)-Anatabine]", "values": [{"measurement": "BT (°C) naïve", "setting": "[1]; 1 mg/kg group", "result": "37.95 ± 0.13", "unit": "°C"}, {"measurement": "Manipulations naïve", "setting": "[1]; 1 mg/kg group", "result": "0.00 ± 0.00"}, {"measurement": "Passive naïve", "setting": "[1]; 1 mg/kg group", "result": "0.00 ± 0.00"}, {"measurement": "BT (°C) 15min", "setting": "[1]; 1 mg/kg i.p.", "result": "36.98 ± 0.41", "unit": "°C"}, {"measurement": "BT (°C) 4hr", "setting": "[1]; 1 mg/kg i.p.", "result": "36.65 ± 0.33", "unit": "°C"}, {"measurement": "BT (°C) 24hr", "setting": "[1]; 1 mg/kg i.p.", "result": "36.88 ± 0.43", "unit": "°C"}, {"measurement": "Manipulations 15min", "setting": "[1]; 1 mg/kg i.p.", "result": "0.00 ± 0.00"}, {"measurement": "Manipulations 2hr", "setting": "[1]; 1 mg/kg i.p.", "result": "0.00 ± 0.00"}, {"measurement": "Manipulations 4hr", "setting": "[1]; 1 mg/kg i.p.", "result": "0.00 ± 0.00"}, {"measurement": "Passive 15min", "setting": "[1]; 1 mg/kg i.p.", "result": "0.00 ± 0.00"}, {"measurement": "Passive 2hr", "setting": "[1]; 1 mg/kg i.p.", "result": "0.00 ± 0.00"}, {"measurement": "Passive 4hr", "setting": "[1]; 1 mg/kg i.p.", "result": "0.00 ± 0.00"}, {"measurement": "BW Day 1", "setting": "[1]; 1 mg/kg i.p.", "result": "24.46 ± 2.30"}, {"measurement": "BW Day 2", "setting": "[1]; 1 mg/kg i.p.", "result": "24.64 ± 2.56"}, {"measurement": "BT (°C) naïve", "setting": "[1]; 2 mg/kg group", "result": "37.83 ± 0.15", "unit": "°C"}, {"measurement": "Manipulations naïve", "setting": "[1]; 2 mg/kg group", "result": "0.00 ± 0.00"}, {"measurement": "Passive naïve", "setting": "[1]; 2 mg/kg group", "result": "0.00 ± 0.00"}, {"measurement": "BT (°C) 15min", "setting": "[1]; 2 mg/kg i.p.", "result": "35.28 ± 0.49", "unit": "°C"}, {"measurement": "BT (°C) 4hr", "setting": "[1]; 2 mg/kg i.p.", "result": "36.48 ± 0.49", "unit": "°C"}, {"measurement": "BT (°C) 24hr", "setting": "[1]; 2 mg/kg i.p.", "result": "36.45 ± 0.30", "unit": "°C"}, {"measurement": "Manipulations 15min", "setting": "[1]; 2 mg/kg i.p.", "result": "0.00 ± 0.00"}, {"measurement": "Manipulations 2hr", "setting": "[1]; 2 mg/kg i.p.", "result": "0.00 ± 0.00"}, {"measurement": "Manipulations 4hr", "setting": "[1]; 2 mg/kg i.p.", "result": "0.00 ± 0.00"}, {"measurement": "Passive 15min", "setting": "[1]; 2 mg/kg i.p.", "result": "0.00 ± 0.00"}, {"measurement": "Passive 2hr", "setting": "[1]; 2 mg/kg i.p.", "result": "0.00 ± 0.00"}, {"measurement": "Passive 4hr", "setting": "[1]; 2 mg/kg i.p.", "result": "0.00 ± 0.00"}, {"measurement": "BW Day 1", "setting": "[1]; 2 mg/kg i.p.", "result": "24.64 ± 1.69"}, {"measurement": "BW Day 2", "setting": "[1]; 2 mg/kg i.p.", "result": "24.89 ± 2.21"}, {"measurement": "BT (°C) naïve", "setting": "[1]; 4 mg/kg group", "result": "38.08 ± 0.05", "unit": "°C"}, {"measurement": "Manipulations naïve", "setting": "[1]; 4 mg/kg group", "result": "0.00 ± 0.00"}, {"measurement": "Passive naïve", "setting": "[1]; 4 mg/kg group", "result": "0.00 ± 0.00"}, {"measurement": "BT (°C) 15min", "setting": "[1]; 4 mg/kg i.p.", "result": "33.92 ± 0.30", "unit": "°C"}, {"measurement": "BT (°C) 4hr", "setting": "[1]; 4 mg/kg i.p.", "result": "36.30 ± 0.40", "unit": "°C"}, {"measurement": "BT (°C) 24hr", "setting": "[1]; 4 mg/kg i.p.", "result": "36.63 ± 0.17", "unit": "°C"}, {"measurement": "Manipulations 15min", "setting": "[1]; 4 mg/kg i.p.", "result": "0.00 ± 0.00"}, {"measurement": "Manipulations 2hr", "setting": "[1]; 4 mg/kg i.p.", "result": "0.00 ± 0.00"}, {"measurement": "Manipulations 4hr", "setting": "[1]; 4 mg/kg i.p.", "result": "0.00 ± 0.00"}, {"measurement": "Passive 15min", "setting": "[1]; 4 mg/kg i.p.", "result": "0.00 ± 0.00"}, {"measurement": "Passive 2hr", "setting": "[1]; 4 mg/kg i.p.", "result": "0.00 ± 0.00"}, {"measurement": "Passive 4hr", "setting": "[1]; 4 mg/kg i.p.", "result": "0.00 ± 0.00"}, {"measurement": "body temperature 15 min after the injection", "setting": "[1]; 4 mg/kg i.p.", "result": "decreased the body temperature"}, {"measurement": "BW Day 1", "setting": "[1]; 4 mg/kg i.p.", "result": "24.73 ± 1.23"}, {"measurement": "BW Day 2", "setting": "[1]; 4 mg/kg i.p.", "result": "24.43 ± 1.13"}, {"measurement": "% of the full receptor activity, α4β2 nAChR", "setting": "[2]", "result": "~60", "unit": "%"}, {"measurement": "EC50", "setting": "[3]", "result": "3.6 ± 0.3", "unit": "µM"}, {"measurement": "partial activation of α6-containing nAChRs, % of nicotine", "setting": "[3]; preliminary data", "result": "approximately 67%"}, {"measurement": "% of the full receptor activity, α6/3β2β3 nAChR", "setting": "[3]; preliminary, data not shown", "result": "~70", "unit": "%"}]}]}
